The results in this text go back to patent publication US12102660B2, “Association of N-acetylcysteine and colistin for use in bacterial infections” (Zambon S.P.A., priority 2017, dated 2024).

Read-outs that look alike come from different tables or passages of the source. Some results are limits rather than exact numbers.

Assay [1] has as its system colistin resistant A. baumannii clinical isolates. Kind of assay: MIC determination and classic checkerboard assays (colistin, NAC). Particulars: for MIC: Acinetobacter baumannii. Format: cell-based, Acinetobacter baumannii. The procedure:
(§1) In vitro antimicrobial synergism between NAC and colistin was determined following EUCAST guidelines. In particular, the total fractional inhibitory concentration (ΣFIC) was calculated as follows: ΣFIC equals FIC of agent A plus FIC of agent B, where the FIC of agent A or B is the minimum inhibitory concentration (MIC) of agent A or B in the presence of the other divided by the MIC of agent A or B alone. Synergism was defined as a ΣFIC value of <0.5.
Classic checkerboard assays were used to investigate potential synergism between colistin (range 0.25-256 μg/ml) and NAC (range 0.5-32 mg/ml). Fraction inhibitory concentration indices (FICIs) were calculated, and synergism was defined as FICI values <0.5. Synergy between colistin and NAC was also confirmed by time-kill assays performed with one isolate, using two different concentrations of colistin (2 and 8 μg/ml, representing concentrations achievable in serum and epithelial lining fluid—ELF, respectively) and NAC (1.6 and 8 mg/ml, likely achievable in ELF by topical administration).

Assay [2] relates to S. maltophilia clinical isolates. Described as above. The assay is classed as cell-based, Stenotrophomonas maltophilia. Particulars: for MIC: Stenotrophomonas maltophilia. As to the method: as §1
Twenty S. maltophilia clinical isolates were tested, including also four isolates from patients affected by cystic fibrosis (CF). […] Synergism between colistin (range 0.25-256 μg/ml) and NAC (range 0.5-32 mg/ml) was investigated by classic checkerboard assays. Fraction inhibitory concentration indices (FICIs) were calculated, and synergism was defined as FICI values <0.5. Time-kill assays were performed with two clinical isolates (including one strain resistant to trimethoprim-sulphamethoxazole, and one from CF). For this purpose, two different concentrations of colistin (2 and 8 μg/ml, representing concentrations achievable in serum and epithelial lining fluid—ELF, respectively) and NAC (1.6 and 8 mg/ml, likely achievable in ELF by topical administration) were tested alone and in combination.

Where [3] appears, read: seven colistin resistant A. baumannii clinical isolates.
The mark [4] stands for this setting: twenty S. maltophilia clinical isolates.

Turning to colistin sulfate, in assay [1] (isolate N50), the “Colistin MIC” value came out at 0.016 mg/mL. Besides, in assay [1] (setting [3]), the MIC50 – broadly, an inhibitory concentration at the 50% level, which refers to growth in some studies and to a panel of isolates in others – was 0.064 mg/mL; the MIC90 (as a rule, an inhibitory concentration at the 90% level, which refers to growth in some studies and to a panel of isolates in others) came out at 0.128 mg/mL; the “colistin MIC range” value lay within 0.016 to 0.256 mg/mL. Also, in assay [1] (strain Z165), the “colistin 8 μg/ml as multiple of MIC” value came out at 0.25 ×MIC. Further, the “colistin 8 μg/ml as multiple of MIC” value in assay [1] (strain Z167) is 0.06 ×MIC. Further, in assay [2] (setting [4]), the MIC50 came out at 0.016 mg/mL and the MIC90 amounted to 0.064 mg/mL.

Take `CC(=O)N[C@@H](CS)C(=O)O` [NAC, N-acetylcysteine]: the MIC (in general, the smallest concentration in the dilution series that meets the test's criterion for growth inhibition) is above 32 mg/mL in assay [1] (isolate N50, read-out: NAC MIC); above 32 mg/mL in assay [1] (the remaining A. baumannii isolates, read-out: MIC of NAC); 32 mg/mL in assay [1] (two of seven A. baumannii isolates, read-out: MIC of NAC); 16 mg/mL in assay [2] (nine S. maltophilia isolates); above 32 mg/mL in assay [2] (one S. maltophilia isolate); 32 mg/mL in assay [2] (the remaining S. maltophilia isolates).
